# Results published in patent US7927791B2, “Methods for identifying small molecules that modulate premature translation termination and nonsense mediated mRNA decay” (PTC Therapeutics, Inc., priority 2002, dated 2011).
# Columns and labels:
# [1] = tested on: RNA oligonucleotide corresponding to the 16S rRNA A site; assay: Gel mobility shift assay of gentamicin binding to the 16S rRNA A site oligonucleotide
# Experimental: FIG. 3. Gentamicin interacts with an oligonucleotide corresponding to the 16S rRNA. 20 μl reactions containing increasing concentrations of gentamicin (1 ng/ml, 10 ng/ml, 100 ng/ml, 1 μg/ml, 10 μg/ml, 50 μg/ml, 500 μg/ml) were added to 50 pmole end-labeled RNA oligonucleotide in TKM buffer, heated at 90° C. for 2 min and allowed to cool slowly to 24° C. 10 μl of 30% glycerol was added to each sample and the samples were applied to a 13.5% non-denaturing polyacrylamide gel. The gel was electrophoresed using 1200 volt-hours at 4° C. in TBE Buffer. Following electrophoresis, the gel was dried and the radioactivity was quantitated using a phosphorimager. The concentration of gentamicin added is indicated above each lane.
# (§1) FIG. 4. The presence of 10 pg/ml gentamicin produces a gel mobility shift in the presence of the 16S rRNA oligonucleotide. 20 μl reactions containing increasing concentrations of gentamicin (100 ng/ml, 10 ng/ml, 1 ng/ml, 100 pg/ml, and 10 pg/ml) were added to 50 pmole end-labeled RNA oligonucleotide in TKM buffer were treated as described for FIG. 3.
# FIG. 5. Gentamicin binding to the 16S rRNA oligonucleotide is weak in the absence of MgCl2.
# (§2) Tris-potassium chloride (TK) buffer is composed of 50 mM Tris-HCl pH 7.4, 20 mM KCl, 0.1% Triton X-100, and 0.5 mM MgCl2. Tris-borate-EDTA (TBE) buffer is composed of 45 mM Tris-borate pH 8.0, and 1 mM EDTA. Tris-Potassium chloride-magnesium (TKM) buffer is composed of 50 mM Tris-HCl pH 7.4, 20 mM KCl, 0.1% Triton X-100 and 5 mM MgCl2.
# RNA oligonucleotides were purchased from Dharmacon, Inc, Lafayette, Colo.). 500 pmole of either a 5′ fluorescein labeled oligonucleotide corresponding to the 16S rRNA A site (5′-[…]-3′ (SEQ ID NO:1); Moazed & Noller, 1987, Nature 327:389-394; Woodcock et al., 1991, EMBO J. 10:3099-3103; Yoshizawa et al., 1998, EMBO J. 17:6437-6448) or a 5′ fluorescein labeled oligonucleotide corresponding to the HIV-1 TAR element TAR RNA (5′-[…]-3′ (SEQ ID NO: 2); Huq et al., 1999, Nucleic Acids Research. 27:1084-1093; Hwang et al., 1999, Proc. Natl. Acad. Sci. USA 96:12997-13002) was 3′ labeled with 5′-^32P cytidine 3′,5′-bis(phosphate) (NEN) and T4 RNA ligase (NEBiolabs) in 10% DMSO as per manufacturer's instructions. The labeled oligonucleotides were purified using G-25 Sephadex columns (Boehringer Mannheim). For Tat-TAR gel retardation reactions the method of Huq et al. (Nucleic Acids Research, 1999, 27:1084-1093) was utilized with TK buffer containing 0.5 mM MgCl2 and a 12-mer Tat peptide (YGRKKRRQRRRP (SEQ ID NO: 3; single letter amino acid code). For 16S rRNA-gentamicin reactions, the method of Huq et al was used with TKM buffer. In 20 μl reaction volumes 50 pmoles of ^32P cytidine-labeled oligonucleotide and either gentamicin sulfate (Sigma) or the short Tat peptide (Tat47-58) in TK or TKM buffer were heated at 90° C. for 2 minutes and allow to cool to room temperature (approximately 24° C.) over 2 hours. Then 10 μl of 30% glycerol was added to each reaction tube and the entire sample was loaded onto a TBE non-denaturing polyacrylamide gel and electrophoresed at 1200-1600 volt-hours at 4° C. The gel was exposed to an intensifying screen and radioactivity was quantitated using a Typhoon phosporimager molecular Dynamics).
# [2] = tested on: HIV TAR RNA element oligonucleotide; assay: Gel mobility shift specificity control: gentamicin with an unrelated oligonucleotide; assay type: binding; conditions: incubated with 10 mg/ml gentamicin, FIG. 4
# Experimental: as §1
# RNA oligonucleotides were purchased from Dharmacon, Inc, Lafayette, Colo.). 500 pmole of either a 5′ fluorescein labeled oligonucleotide corresponding to the 16S rRNA A site (5′-[…]-3′ (SEQ ID NO:1); Moazed & Noller, 1987, Nature 327:389-394; Woodcock et al., 1991, EMBO J. 10:3099-3103; Yoshizawa et al., 1998, EMBO J. 17:6437-6448) or a 5′ fluorescein labeled oligonucleotide corresponding to the HIV-1 TAR element TAR RNA (5′-[…]-3′ (SEQ ID NO: 2); Huq et al., 1999, Nucleic Acids Research. 27:1084-1093; Hwang et al., 1999, Proc. Natl. Acad. Sci. USA 96:12997-13002) was 3′ labeled with 5′-^32P cytidine 3′,5′-bis(phosphate) (NEN) and T4 RNA ligase (NEBiolabs) in 10% DMSO as per manufacturer's instructions. The labeled oligonucleotides were purified using G-25 Sephadex columns (Boehringer Mannheim). […] The gel was exposed to an intensifying screen and radioactivity was quantitated using a Typhoon phosporimager molecular Dynamics). […]
# [3] = tested on: HIV-1 TAR element TAR RNA oligonucleotide; assay: Gel retardation analysis of Tat peptide binding to TAR RNA (non-denaturing polyacrylamide gel); conditions: 12% non-denaturing polyacrylamide gel, TK buffer, FIG. 2
# Experimental: FIG. 2. Gel retardation analysis to detect peptide-RNA interactions. In 20 μl reactions containing 50 pmole end-labeled TAR RNA oligonucleotide, increasing concentrations of Tat47-58 peptide (0.1 uM, 0.2 uM, 0.4 uM, 0.8 uM, 1.6 uM) was added in TK buffer. The reaction mixture was then heated at 90° C for 2 min and allowed to cool slowly to 24° C. 10 μl of 30% glycerol was added to each sample and applied to a 12% non-denaturing polyacrylamide gel. The gel was electrophoresed using 1200 volt-hours at 4° C. in TBE Buffer. Following electrophoresis, the gel was dried and the radioactivity was quantitated with a phosphorimager. The concentration of peptide added is indicated above each lane.
# as §2
# RNA oligonucleotides were purchased from Dharmacon, Inc, Lafayette, Colo.). […] The gel was exposed to an intensifying screen and radioactivity was quantitated using a Typhoon phosporimager molecular Dynamics).
# [4] = tested on: HIV-1 TAR element TAR RNA oligonucleotide; assay: Gel retardation assay by automated capillary electrophoresis (Tat peptide and TAR RNA); assay type: binding; conditions: increasing concentrations of Tat peptide, SCE9610 apparatus, FIG. 6
# Experimental: FIG. 6. Gel retardation analysis to detect peptide-RNA interactions. In reactions containing increasing concentrations of Tat47-58 peptide (0.1 mM, 0.2 mM, 0.4 mM, 0.8 mM, 1.6 mM) 50 pmole TAR RNA oligonucleotide was added in TK buffer. The reaction mixture was then heated at 90° C. for 2 min and allowed to cool slowly to 24° C. The reactions were loaded onto a SCE9610 automated capillary electrophoresis apparatus (SpectruMedix; State College, Pennsylvania). The peaks correspond to the amount of free TAR RNA (“TAR”) or the Tat-TAR complex (“Tat-TAR”). The concentration of peptide added is indicated below each lane.
# as §2, with “0.5 mM MgC2. Tris-borate-EDTA (IBE)” for “0.5 mM MgCl2. Tris-borate-EDTA (TBE)”, “MgC2. Tris-borate-EDTA (IBE) buffer is” for “MgCl2. Tris-borate-EDTA (TBE) buffer is”
# RNA oligonucleotides were purchased from Dharmacon, Inc, Lafayette, Colo.). 500 pmole of a 5′ fluorescein labeled oligonucleotide corresponding to the HIV-1 TAR element TAR RNA (5′-[…]-3′ (SEQ ID NO: 2); Huq et al., 1999, Nucleic Acids Research. 27:1084-1093; Hwang et al., 1999, Proc. Natl. Acad. Sci. USA 96:12997-13002) was used. […]
Substance,"lowest gentamicin concentration that produces the mobility shift ([1]; TKM buffer (5 mM MgCl2), 1 ng/ml to 500 μg/ml tested, FIG. 3) [ng/mL]",gel shift when gentamicin is added after renaturation has proceeded to 75° C. ([1]; added after the renaturation step has proceeded to 75° C.),"gentamicin binding to the 16S rRNA oligonucleotide in the absence of MgCl2 ([1]; buffer without MgCl2, FIG. 5)","gel shift when gentamicin is added at 90° C. or 85° C. ([1]; gentamicin present during entire denaturation/renaturation cycle, data not shown)","gentamicin concentration that must be added to produce a gel shift when MgCl2 is not present ([1]; no MgCl2 (TK buffer), FIG. 5) [mg/mL]","mobility shift of 16S rRNA A site oligonucleotide on addition of gentamicin ([1]; varying concentrations, TKM buffer, FIG. 3)",gel mobility shift of unrelated HIV TAR RNA oligonucleotide [2],gel mobility shift of TAR RNA oligonucleotide in the presence of the peptide [3],shift of TAR RNA peak in capillary electrophoresis [4]
gentamicin,≤ 10,a mobility shift is not produced,weak,a gel shift is visualized,1,produces a mobility shift,does not result in a gel mobility shift,,
YGRKKRRQRRRP [Tat47-58 peptide],,,,,,,,a clear shift is visible,a clear shift is visible
